# Source: patent US20230263822A1, “MODULATION OF FACTOR 11 EXPRESSION” (Ionis Pharmaceuticals, Inc., priority 2008, published 2023)
# Strand notation (5' to 3'): a small letter for the sugar, then the base; units joined by * are phosphorothioate-linked, units joined directly phosphodiester-linked; [ ] holds rarer units or linkages, { } end groups; capitals alone tell only the bases. e = 2'-O-(2-methoxyethyl) (MOE); [5mC] = 5-methylcytosine; d = 2'-deoxy (DNA)
# Test system: human Factor 11 mRNA
# Assay: Antisense inhibition of human Factor 11 in HepG2 cells by microwalk gapmers, lipofectin, 75 nM (Example 3)
# Type: cell-based
# Description: These gapmers were designed by creating gapmers shifted slightly upstream and downstream (i.e. “microwalk”) of the original gapmers from Table 3. Gapmers were also created with various motifs, e.g. 5-10-5 MOE, 3-14-3 MOE, and 2-13-5 MOE. These gapmers were tested in vitro. Cultured HepG2 cells at a density of 10,000 cells per well were transfected using lipofectin reagent with 75 nM antisense oligonucleotide. After a treatment period of approximately 24 hours, RNA was isolated from the cells and Factor 11 mRNA levels were measured by quantitative real-time PCR. Factor 11 mRNA levels were adjusted according to total RNA content, as measured by RIBOGREEN. Results are presented as percent inhibition of Factor 11, relative to untreated control cells.
# The chimeric antisense oligonucleotides in Table 4 were designed as 5-10-5 MOE, 3-14-3 MOE, and 2-13-5 MOE gapmers. The first listed gapmers in Table 4 are the original gapmers (see Table 3) from which the remaining gapmers were designed via microwalk and are designated by an asterisk. The 5-10-5 gapmers are 20 nucleotides in length, wherein the central gap segment is comprised of 10 2′-deoxynucleotides and is flanked on both sides (in the 5′ and 3′ directions) by wings comprising 5 nucleotides each. The 3-14-3 gapmers are 20 nucleotides in length, wherein the central gap segment is comprised of 14 2′-deoxynucleotides and is flanked on both sides (in the 5′ and 3′ directions) by wings comprising 3 nucleotides each. The 2-13-5 gapmers are 20 nucleotides in length, wherein the central gap segment is comprised of 13 2′-deoxynucleotides. The central gap is flanked on the 5′ end with a wing comprising 2 nucleotides and on the 3′ end with a wing comprising 5 nucleotides. For each of the motifs (5-10-5, 3-14-3, and 2-13-5), each nucleotide in the 5′ wing segment and each nucleotide in the 3′ wing segment has a 2′-MOE modification. The internucleoside linkages throughout each gapmer are phosphorothioate (P=S) linkages. All cytidine residues throughout each gapmer are 5-methyl cytidines. “Target start site” indicates the 5′-most nucleotide to which the gapmer is targeted. “Target stop site” indicates the 3′-most nucleotide to which the gapmer is targeted. Each gapmer listed in Table 4 is targeted to SEQ ID NO: 1 (GENBANK Accession No. NM_000128.3).
# [1] = HepG2, lipofectin, ~24 h, gapmers targeted to nucleobases 656 to 704 of SEQ ID NO: 1
# [2] = HepG2 cells, lipofectin, gapmers targeted to nucleobases 738 to 762 of SEQ ID NO: 1
# [3] = HepG2 cells, lipofectin, gapmers targeted to nucleobases 1018 to 1042 of SEQ ID NO: 1
# [4] = HepG2 cells, lipofectin, gapmers targeted to nucleobases 1062 to 1091 of SEQ ID NO: 1
Substance,% inhibition [1] [%],other results
416870 (antisense eT*eA*eA*dA*dT*dG*dT*d[5mC]*dT*dT*dT*dG*dT*dT*dG*d[5mC]*dA*eA*eG*e[5mC]) [compound 416870],76,
416871 (antisense eA*eT*eA*dA*dA*dT*dG*dT*d[5mC]*dT*dT*dT*dG*dT*dT*dG*d[5mC]*eA*eA*eG) [compound 416871],28,
416872 (antisense e[5mC]*eA*eT*dA*dA*dA*dT*dG*dT*d[5mC]*dT*dT*dT*dG*dT*dT*dG*e[5mC]*eA*eA) [compound 416872],20,
416873 (antisense eA*e[5mC]*eA*dT*dA*dA*dA*dT*dG*dT*d[5mC]*dT*dT*dT*dG*dT*dT*eG*e[5mC]*eA) [compound 416873],51,
416874 (antisense e[5mC]*eA*e[5mC]*dA*dT*dA*dA*dA*dT*dG*dT*d[5mC]*dT*dT*dT*dG*dT*eT*eG*e[5mC]) [compound 416874],49,
416875 (antisense e[5mC]*e[5mC]*eA*d[5mC]*dA*dT*dA*dA*dA*dT*dG*dT*d[5mC]*dT*dT*dT*dG*eT*eT*eG) [compound 416875],75,
416876 (antisense eT*e[5mC]*e[5mC]*dA*d[5mC]*dA*dT*dA*dA*dA*dT*dG*dT*d[5mC]*dT*dT*dT*eG*eT*eT) [compound 416876],37,
416877 (antisense eG*eT*e[5mC]*d[5mC]*dA*d[5mC]*dA*dT*dA*dA*dA*dT*dG*dT*d[5mC]*dT*dT*eT*eG*eT) [compound 416877],51,
416879 (antisense eA*eG*eG*dT*d[5mC]*d[5mC]*dA*d[5mC]*dA*dT*dA*dA*dA*dT*dG*dT*d[5mC]*eT*eT*eT) [compound 416879],92,
416880 (antisense eT*eA*eG*dG*dT*d[5mC]*d[5mC]*dA*d[5mC]*dA*dT*dA*dA*dA*dT*dG*dT*e[5mC]*eT*eT) [compound 416880],66,
416881 (antisense e[5mC]*eT*eA*dG*dG*dT*d[5mC]*d[5mC]*dA*d[5mC]*dA*dT*dA*dA*dA*dT*dG*eT*e[5mC]*eT) [compound 416881],81,
416882 (antisense eT*e[5mC]*eT*dA*dG*dG*dT*d[5mC]*d[5mC]*dA*d[5mC]*dA*dT*dA*dA*dA*dT*eG*eT*e[5mC]) [compound 416882],60,
416883 (antisense eG*eT*e[5mC]*dT*dA*dG*dG*dT*d[5mC]*d[5mC]*dA*d[5mC]*dA*dT*dA*dA*dA*eT*eG*eT) [compound 416883],82,
416884 (antisense eT*eG*eT*d[5mC]*dT*dA*dG*dG*dT*d[5mC]*d[5mC]*dA*d[5mC]*dA*dT*dA*dA*eA*eT*eG) [compound 416884],69,
416885 (antisense eA*eT*eG*dT*d[5mC]*dT*dA*dG*dG*dT*d[5mC]*d[5mC]*dA*d[5mC]*dA*dT*dA*eA*eA*eT) [compound 416885],67,
416886 (antisense e[5mC]*eA*eT*dG*dT*d[5mC]*dT*dA*dG*dG*dT*d[5mC]*d[5mC]*dA*d[5mC]*dA*dT*eA*eA*eA) [compound 416886],74,
416888 (antisense eT*eT*e[5mC]*dA*dT*dG*dT*d[5mC]*dT*dA*dG*dG*dT*d[5mC]*d[5mC]*dA*d[5mC]*eA*eT*eA) [compound 416888],76,
416889 (antisense e[5mC]*eT*eT*d[5mC]*dA*dT*dG*dT*d[5mC]*dT*dA*dG*dG*dT*d[5mC]*d[5mC]*dA*e[5mC]*eA*eT) [compound 416889],60,
416890 (antisense e[5mC]*e[5mC]*eT*dT*d[5mC]*dA*dT*dG*dT*d[5mC]*dT*dA*dG*dG*dT*d[5mC]*d[5mC]*eA*e[5mC]*eA) [compound 416890],87,
416891 (antisense e[5mC]*e[5mC]*e[5mC]*dT*dT*d[5mC]*dA*dT*dG*dT*d[5mC]*dT*dA*dG*dG*dT*d[5mC]*e[5mC]*eA*e[5mC]) [compound 416891],81,

Substance,% inhibition [1] [%],other results
416893 (antisense eT*eG*e[5mC]*d[5mC]*d[5mC]*dT*dT*d[5mC]*dA*dT*dG*dT*d[5mC]*dT*dA*dG*dG*eT*e[5mC]*e[5mC]) [compound 416893],90,
416894 (antisense eA*eT*eG*d[5mC]*d[5mC]*d[5mC]*dT*dT*d[5mC]*dA*dT*dG*dT*d[5mC]*dT*dA*dG*eG*eT*e[5mC]) [compound 416894],85,
416897 (antisense eT*eT*eT*dA*dT*dG*d[5mC]*d[5mC]*d[5mC]*dT*dT*d[5mC]*dA*dT*dG*dT*d[5mC]*eT*eA*eG) [compound 416897],66,
416898 (antisense e[5mC]*e[5mC]*eG*dT*dG*d[5mC]*dA*dT*d[5mC]*dT*dT*dT*d[5mC]*dT*dT*dG*dG*e[5mC]*eA*eT) [compound 416898],,% inhibition [2]: 88%
416899 (antisense eT*e[5mC]*e[5mC]*dG*dT*dG*d[5mC]*dA*dT*d[5mC]*dT*dT*dT*d[5mC]*dT*dT*dG*eG*e[5mC]*eA) [compound 416899],,% inhibition [2]: 86%
416900 (antisense eA*eT*e[5mC]*d[5mC]*dG*dT*dG*d[5mC]*dA*dT*d[5mC]*dT*dT*dT*d[5mC]*dT*dT*eG*eG*e[5mC]) [compound 416900],,% inhibition [2]: 90%
416901 (antisense e[5mC]*eA*eT*d[5mC]*d[5mC]*dG*dT*dG*d[5mC]*dA*dT*d[5mC]*dT*dT*dT*d[5mC]*dT*eT*eG*eG) [compound 416901],,% inhibition [2]: 65%
416902 (antisense eT*e[5mC]*eA*dT*d[5mC]*d[5mC]*dG*dT*dG*d[5mC]*dA*dT*d[5mC]*dT*dT*dT*d[5mC]*eT*eT*eG) [compound 416902],,% inhibition [2]: 46%
416903 (antisense eG*eT*e[5mC]*dA*dT*d[5mC]*d[5mC]*dG*dT*dG*d[5mC]*dA*dT*d[5mC]*dT*dT*dT*e[5mC]*eT*eT) [compound 416903],,% inhibition [2]: 88%
416904 (antisense e[5mC]*e[5mC]*eG*dG*dG*dA*dT*dG*dA*dT*dG*dA*dG*dT*dG*d[5mC]*dA*eG*eA*eT) [compound 416904],,% inhibition [3]: 90%
416905 (antisense eA*e[5mC]*e[5mC]*dG*dG*dG*dA*dT*dG*dA*dT*dG*dA*dG*dT*dG*d[5mC]*eA*eG*eA) [compound 416905],,% inhibition [3]: 85%
416906 (antisense eA*eA*e[5mC]*d[5mC]*dG*dG*dG*dA*dT*dG*dA*dT*dG*dA*dG*dT*dG*e[5mC]*eA*eG) [compound 416906],,% inhibition [3]: 88%
416907 (antisense e[5mC]*eA*eA*d[5mC]*d[5mC]*dG*dG*dG*dA*dT*dG*dA*dT*dG*dA*dG*dT*eG*e[5mC]*eA) [compound 416907],,% inhibition [3]: 90%
416909 (antisense eA*eT*eT*d[5mC]*dT*dT*dT*dG*dG*dG*d[5mC]*d[5mC]*dA*dT*dT*d[5mC]*d[5mC]*eT*eG*eG) [compound 416909],,% inhibition [4]: 78%
416910 (antisense eG*eA*eT*dT*d[5mC]*dT*dT*dT*dG*dG*dG*d[5mC]*d[5mC]*dA*dT*dT*d[5mC]*e[5mC]*eT*eG) [compound 416910],,% inhibition [4]: 90%
416911 (antisense eA*eG*eA*dT*dT*d[5mC]*dT*dT*dT*dG*dG*dG*d[5mC]*d[5mC]*dA*dT*dT*e[5mC]*e[5mC]*eT) [compound 416911],,% inhibition [4]: 90%
416912 (antisense eG*eA*eG*dA*dT*dT*d[5mC]*dT*dT*dT*dG*dG*dG*d[5mC]*d[5mC]*dA*dT*eT*e[5mC]*e[5mC]) [compound 416912],,% inhibition [4]: 92%
416913 (antisense eT*eG*eA*dG*dA*dT*dT*d[5mC]*dT*dT*dT*dG*dG*dG*d[5mC]*d[5mC]*dA*eT*eT*e[5mC]) [compound 416913],,% inhibition [4]: 93%
416914 (antisense eT*eT*eG*dA*dG*dA*dT*dT*d[5mC]*dT*dT*dT*dG*dG*dG*d[5mC]*d[5mC]*eA*eT*eT) [compound 416914],,% inhibition [4]: 87%
